pKi: −log10 of the molar value.
What was measured:
[1] = tested on: LspA; conditions: cited from earlier work; for LspA inhibition, mode: in words
Description: Bacterial lipoprotein biosynthesis is an attractive target for novel antibiotic drug discovery, as bacterial lipoproteins play critical roles in adhesion, nutrient uptake, antibiotic resistance, virulence, invasion, and immune evasion ([14]). Lipoprotein biosynthesis in Gram-negative bacteria is mediated by three essential inner membrane-localized enzymes ([14]), which work sequentially to generate the mature triacylated lipoproteins. The second enzyme in the pathway, prolipoprotein signal peptidase (LspA), is an aspartyl endopeptidase which cleaves off the signal peptide N-terminal to a conse ... || Our efforts to identify potent GBM analogs were driven by whole bacterial cell activity assays due to the low translatability of in vitro biochemical activity ([34], [35]).

[2] = tested on: lspA-overexpressing or lpp-deleted bacteria; conditions: in words, cited from earlier work
[3] = tested on: E. coli MG1655 ΔtolC; test: MIC; assay type: cell-based; conditions: E. coli MG1655 WT vs MG1655 ΔtolC
Procedure: MICs of compounds in each strain were determined in cation-adjusted Mueller-Hinton II (MHII) broth or MHII agar according to the Clinical and Laboratory Standards Institute protocol (CLSI 2006). To measure the effect of protein binding on activity, MIC assays were performed in the presence of 50% heat-inactivated human serum. The serum killing assay was performed as described previously ([43]). FOR assays and growth on plates containing G0790 were always performed on MHII agarose plates.

[4] = tested on: E. coli CFT073 imp4213; test: Frequency of resistance (FOR); assay type: cell-based; conditions: 4× MIC, MHII agarose
Procedure: Frequencies of resistance (FORs) of G0790 were determined for E. coli CFT073, E. cloacae (ATCC 13047), and K. pneumoniae (ATCC 700603) as previously published ([70]). To determine the FOR, 3 to 4 colonies of the strain to be tested were picked from a fresh plate and diluted to an optical density at 600 nm (OD600) of 0.00001 in 1 ml of cation-adjusted MHBII. Ten independent 5-ml cultures in MHBII were prepared by inoculating 5 μl (approximately 1 × 10^3 CFU) and incubated at 37°C for 18 h. The bacteria were pelleted by centrifugation at 4000 × g at 4°C for 15 min and resuspended in 0.5 ml fresh MHBII. Two hundred fifty microliters of the bacterial suspension was plated evenly on MHII agarose plates containing globomycin or G0790 at a final concentration of 4× and 8× MIC. In parallel, CFU from each independent culture was measured by spotting 10-fold serial dilutions on MHII agar plates and incubated at 37°C for 18 h. Colonies were counted at days 1, 2, and 3 postinoculation. FOR was calculated as the ratio of the total number of resistant colonies relative to the total CFU plated. For strains that had no resistant colonies growing on plates, the p0 method was used to calculate the FOR (FOR = m/total CFU plated, where m = −ln p0 and p0 is the proportion of cultures with no mutants; 0.7 ≥ p0 ≥ 0.1), as described previously ([71]). Colonies were picked and resuspended in 30 μl MHBII broth medium, and 10 μl was plated on an MHII agar plate containing G0790 to be used to determine the MIC. Of the remaining 20 μl, half was used to inoculate 1.5 ml MHBII broth medium containing G0790 and grown at 37°C for 18 h to generate cell lysates for Western blot analysis, isolate genomic DNA (gDNA) for whole-genome sequencing, and for frozen glycerol stocks.

[5] = tested on: E. coli CFT073; test: Bactericidal activity, CFU over time; assay type: cell-based; conditions: G0790 at 2× MIC, two independent experiments in duplicates
[6] = tested on: Lpp; conditions: in words; cited from earlier work
Description: We confirmed that the increase in potency against WT bacterial strains was specific to LspA by using multiple parallel approaches. […] Third, like GBM, G0790 is bactericidal, a ...

[7] = tested on: wild-type (WT) Gram-negative bacteria; conditions: in words; cited from earlier work
Description: Therefore, with the goal of increasing GBM whole-cell potency through medicinal chemistry optimization, we identified G0790 as an analog with increased growth inhibitory activity against multiple Gram-negative bacterial species ([36]). G0790 contains (S)-2,3-diaminopropionic acid (Dap), cyclohexylglycine (Chg), and N-methyl ...

Structure (SMILES)	LspA inhibition, mode [1]	Effect of plasmid-based lspA overexpression [2]	WT/tolC MIC shift [3] [fold]	FOR (frequency of resistance) [4]	Bactericidal activity [5]	Accumulation of peptidoglycan-associated Lpp in the inner membrane [6]	pKi ([1]; previously described by Dev et al.)	Growth inhibition of WT Gram-negative bacteria [7]	Effect of complete Lpp deletion ([2]; previous finding, ref as printed: none in abstract)
CCCC1OC(=O)C(C)CC(C)CCCCC(=O)CCCC(CC)/C=C/C=C(\COC)CCC(O)C(O)CC(O)CNC1=O (centres unmarked) [myxovirescin]	inhibit LspA function by targeting the catalytic dyad aspartic acid residues	confer resistance	–	–	–	–	–	–	–
CCCCCC[C@H]1OC(=O)CNC(=O)[C@H]([C@H](C)O)NC(=O)[C@H](CO)NC(=O)[C@H]([C@H](C)CC)NC(=O)[C@H](CC(C)C)N(C)C(=O)[C@@H]1C [GBM, globomycin]	inhibit LspA function by targeting the catalytic dyad aspartic acid residues	confer resistance	~128	1.4 × 10^−9	bactericidal	accumulation of the peptidoglycan-associated form of Lpp in the inner membrane	7.44	weak growth inhibition	leads to globomycin resistance

From paper PMC7482066, “Unstable Mechanisms of Resistance to Inhibitors of Escherichia coli Lipoprotein Signal Peptidase” (mBio, 2020)
